Here are results for 74 compounds from PubChem BioAssay AID1996.

For orientation: kinetic solubility means the concentration staying in solution when a stock, usually in DMSO, is diluted into the medium.

Values after ≈ are worked out from the molar mass of the structure shown.

For the data set the following is noted: buffer; pH 7.4; 200.0 µM.
With `CC1CC(C)CN(C(=O)C(C)N2CCN(S(=O)(=O)c3ccc(Br)s3)CC2)C1` (centres undefined), the kinetic solubility is 29.7 µg/mL (≈ 62.1 µM).

`COc1ccc(CCNC(=O)c2oc3ccc(OC)cc3c2C)cc1` showed a solubility (kinetic) of 2.3 µg/mL (≈ 6.78 µM).

The compound `CC(=O)c1c(C)[nH]c(C(=O)N2CC(C)CC(C)C2)c1C` (centres undefined) returned a solubility (kinetic) above 41.5 µg/mL. As for `O=C(Cc1cccc2ccccc12)Nc1ccc(N2CCOCC2)cc1`, the figure is 1.7 µg/mL (≈ 4.91 µM); as for `O=C(/C=C/c1cccs1)NC1CC1`, above 29 µg/mL.

In turn, `CC(C)CC1NC(=O)N(CC(=O)NC2CCCc3ccccc32)C1=O` (centres undefined) had a kinetic solubility of 45.7 µg/mL (≈ 133 µM).

Compound `CCN1C(=O)C(=Cc2cc(C)n(C3CC3)c2C)C(=O)N(CC)C1=S` displayed a solubility (kinetic) of 2.8 µg/mL (≈ 8.1 µM). With `CN(C)CCCNC(=O)N1c2ccccc2Sc2ccccc21` the figure was above 49.1 µg/mL; with `Cc1cc(NC(=O)c2ccc(Cl)cc2Cl)n(CCC#N)n1`, above 48.5 µg/mL; with `Fc1ccccc1OCCCn1ccnc1`, above 33 µg/mL. As for `COc1ccc(CN(C)CC(=O)NC(C)c2ccccc2)c(OC)c1` (centres undefined), the figure is 51.2 µg/mL (≈ 150 µM); as for `NC(=O)c1cc(-c2csc(NCCc3ccccc3)n2)ccc1O`, 8 µg/mL (≈ 23.6 µM). As for `O=C1Nc2cc(C(F)(F)F)ccc2N2CCCCC12` (centres undefined), the figure is 7.1 µg/mL (≈ 26.3 µM).

Compound `COc1ccc(CCC(=O)NCCOc2ccccc2Cl)cc1` yielded a solubility (kinetic) above 50.1 µg/mL.

Compound `NC(=O)c1ccccc1NCC(=O)c1ccc(Cl)cc1` registered a kinetic solubility of 2.9 µg/mL (≈ 10 µM).

`Cc1c(/C=N/O)c2ccccn2c1C(=O)c1ccc(F)cc1` returned a solubility (kinetic) of 5.5 µg/mL (≈ 18.6 µM). As for `Cc1ccc(OCC(=O)Nc2ccccc2F)cc1`, the figure is 4.6 µg/mL (≈ 17.7 µM); as for `Cc1nc(SCc2ccc(F)cc2)c2oc3ccccc3c2n1`, below 0.3 µg/mL; as for `COc1ccc(C(=O)COC(=O)c2ccccn2)c(OC)c1`, above 45.2 µg/mL.

With `Cc1c(C)n(CCN(C)C)c2ncnc(NCc3ccccc3)c12`, the kinetic solubility stood at 42.9 µg/mL (≈ 133 µM). The compound `Cc1nn(C)c(C)c1NC(=O)COc1ccc(F)cc1Br` displayed a kinetic solubility above 53.4 µg/mL. With `Cc1ccnc(NC(=O)c2cccc(NC(=O)c3ccccc3C)c2)c1` the figure was 2.1 µg/mL (≈ 6.08 µM). Turning to `COc1ccc(C(C)=O)cc1COC(=O)C1CCN(C(=O)c2ccc(Cl)cc2)CC1`, the kinetic solubility came out at 33.5 µg/mL (≈ 77.9 µM).

The compound `CCOC(=O)NC(=S)Nc1ccc(C(C)(C)C)cc1` yielded a kinetic solubility of 1.1 µg/mL (≈ 3.92 µM). This solubility kinetic is about 30-fold lower than that of the compound before. As to `CCn1cc(C=C2C(=O)NC(=O)NC2=O)c2ccccc21`, the kinetic solubility worked out at 1.8 µg/mL (≈ 6.35 µM). This solubility kinetic lies about 1.6-fold higher than the previous one. As for `COc1ccc(NC(=O)c2cc(S(=O)(=O)N3CCCC3)oc2C)cc1`, the figure is 2.5 µg/mL (≈ 6.86 µM); as for `N#Cc1ccc(Sc2ccccn2)c([N+](=O)[O-])c1`, 36.5 µg/mL (≈ 142 µM); as for `Cn1c(=O)c([N+](=O)[O-])c(NCCCn2ccnc2)c2ccccc21`, above 49.1 µg/mL. With `Cc1ccc(N2CC(c3nc4ccccc4n3C)CC2=O)cc1` (centres undefined) the figure was above 45.8 µg/mL; with `CC(C)(C)NC(=O)COC(=O)c1ccccc1C(=O)c1ccccc1`, 43.4 µg/mL (≈ 128 µM); with `COc1ccccc1NC(=O)N1CCN(CCc2ccccc2)CC1`, 50.7 µg/mL (≈ 149 µM). As for `CC(=O)NCCc1nc2cc(NC(=O)c3ccc(F)cc3)ccc2n1C`, the figure is above 53.2 µg/mL. Compound `CCC(=O)Nc1ccc(S(=O)(=O)Nc2nccs2)cc1` displayed a solubility (kinetic) of 45.5 µg/mL (≈ 146 µM).

In turn, `Cc1ccc(NC(=O)CN(C)Cc2ccc(Cl)cc2)cc1` had a solubility (kinetic) of 20.6 µg/mL (≈ 68 µM). This solubility kinetic lies about 2.2-fold lower than the previous one. As for `CN1c2ccccc2C(=O)NC1c1ccc([N+](=O)[O-])s1` (centres undefined), the figure is 31.2 µg/mL (≈ 108 µM); as for `CCN1CCN(C(=S)NC(=O)c2cc(OC)c(OC)c(OC)c2)CC1`, above 55.1 µg/mL; as for `O=C(O)c1cccnc1`, above 18.5 µg/mL. As for `CCOc1ccc(NC(=O)Nc2cccc(C)n2)cc1`, the figure is below 0.2 µg/mL. For the compound `CCN(Cc1ccccc1)C(=O)c1cccnc1`, the kinetic solubility came out at 35.9 µg/mL (≈ 149 µM). For the compound `O=S(=O)(Nc1cccc2cccnc12)c1ccccc1`, the kinetic solubility came to 3.9 µg/mL (≈ 13.7 µM). Against the preceding compound, the solubility kinetic is about 9.2-fold lower. With `O=C(CNCc1cccc(Cl)c1)N1CCc2ccccc2C1` the figure was 38.9 µg/mL (≈ 124 µM); with `Cc1ncc(CN2CCN(CCc3ccccc3)C(CCO)C2)s1` (centres undefined), 39.7 µg/mL (≈ 115 µM). `COc1ccc(-c2csc3ncnc(NCCO)c23)cc1` gave a kinetic solubility above 45.2 µg/mL. As for `CN(C)CCOC(C)(c1ccccc1)c1ccccn1.O=C(O)CCC(=O)O` (centres undefined), the figure is above 58.3 µg/mL; as for `CCN(CC)S(=O)(=O)c1ccc(-c2csc(C)n2)s1`, 13.6 µg/mL (≈ 43 µM). As for `CN1C(=O)NC(c2ccc([N+](=O)[O-])cc2)C2=C1CC(C)(C)CC2=O` (centres undefined), the figure is above 49.4 µg/mL; as for `COc1ccc2cc(C(=O)C3CCCN(Cc4cccc(C)n4)C3)ccc2c1` (centres undefined), 37.7 µg/mL (≈ 101 µM). With `Clc1ccc(Cl)c(OCCN2CCCC2)c1` the figure was 25.4 µg/mL (≈ 97.6 µM); with `Cc1ccc(C)c(N2CCN(CCCc3ccccc3)CC2)c1`, 4.6 µg/mL (≈ 14.9 µM); with `CSC1=NCCN1C(=O)c1ccc2ccccc2c1`, 1.9 µg/mL (≈ 7.03 µM). In turn, `Nc1c(C(=O)N2CCOCC2)oc2ccccc12` showed a kinetic solubility above 36.9 µg/mL. With `COc1cc(C(=O)NCc2ccc3[nH]c(C)cc3c2)cc(OC)c1OC` the figure was 12.5 µg/mL (≈ 35.3 µM). With `Cc1nc(SCC(=O)N2CCOCC2)c2c3c(sc2n1)CCC3` the figure was 32.8 µg/mL (≈ 93.9 µM). `Cc1cn2c(N)c(/C=C3\C=Nc4ccccc43)c(=O)nc2s1` gave a kinetic solubility below 0.2 µg/mL. With `O=S(=O)(c1ccccc1)N1CCN(c2ccccc2)CC1` the figure was 0.4 µg/mL (≈ 1.32 µM); with `N#Cc1ccsc1NC(=O)CN1C(=O)NC2(CCCCC2)C1=O`, 47.3 µg/mL (≈ 142 µM). As for `CCCCC(Sc1nc(C)c(Cc2ccccc2)c(=O)[nH]1)C(=O)O` (centres undefined), the figure is above 52 µg/mL; as for `Cc1ccc(NC(=O)CN2C(=O)NC3(CCCC3)C2=O)c(Cl)c1`, above 50.4 µg/mL. Compound `CCN1CCN(C(=O)C2COc3ccccc3O2)CC1` (centres undefined) had a solubility (kinetic) above 41.5 µg/mL. Take `CC(C)[C@H](NC(=O)N1CC(=O)Nc2ccccc21)C(=O)N1CCC[C@@H]1C(=O)O`: the solubility (kinetic) is above 58.3 µg/mL. With `CC(C)CC(NC(=O)C1CCCCC1)C(=O)NC(C)c1ccccc1` (centres undefined) the figure was 24.4 µg/mL (≈ 70.8 µM); with `Cc1cc(C)cc(NC(=O)Nc2cnccn2)c1`, 2.4 µg/mL (≈ 9.91 µM); with `Cn1c(=O)n(C)c2cc(NC(=O)COc3ccc(F)cc3F)ccc21`, 47.2 µg/mL (≈ 136 µM).

In turn, `CCN(CC)CC(=O)NCC1(c2ccccc2)CCCC1` came in with a kinetic solubility of 40.9 µg/mL (≈ 142 µM). With `Cc1ccc(CC(=O)Nc2nccs2)cc1` the figure was 29.8 µg/mL (≈ 128 µM); with `O=C(Nc1ccc(SC(F)F)cc1)c1ccc(F)cc1`, 1.3 µg/mL (≈ 4.37 µM); with `CC(c1nccs1)N(C)c1nc2nonc2nc1NC1CC1` (centres undefined), 9.6 µg/mL (≈ 30.2 µM). As for `Cc1ccc(NC(=O)N(CCC(=O)O)Cc2ccccc2)cc1`, the solubility (kinetic) is above 46.9 µg/mL. As for `COC(=O)[C@H](CC(C)C)NC(=O)Nc1ccc(S(N)(=O)=O)cc1`, the figure is above 51.5 µg/mL; as for `CCCN(CC(=O)Nc1ccccc1OC)C(=O)c1ccc(=O)[nH]c1`, above 51.5 µg/mL; as for `Cc1ccc(NC(=O)c2ccc([N+](=O)[O-])s2)cc1S(=O)(=O)N1CCOCC1`, 3.1 µg/mL (≈ 7.53 µM). In the case of `Cn1c(Nc2ccc(Cl)cc2)cc(=O)n(C)c1=O`, the kinetic solubility was above 39.9 µg/mL. With `CCc1c(C(=O)OCc2ccccc2)[nH]c(C)c1C` the figure was 1.3 µg/mL (≈ 5.05 µM); with `CC(C)C[C@H](NC(=O)NCCC1=CCCCC1)C(=O)O`, 40.9 µg/mL (≈ 145 µM).
